Assay results from EP0326331B1, “Substituted quinolines and cinnolines” (Dow AgroSciences LLC, priority 1988, dated 1989).

Experiments:
Format in all cases: in vivo
[1] = tested on: Botrytis cinerea (gray mold); experiment: Test 1 greenhouse foliar spray screen, gray mold on grape berries; conditions: disease control rating, spray on grape berries, 400 ppm (+++ at 100 ppm)
[2] = tested on: Puccinia recondita tritici (leaf rust); experiment: Test 1 greenhouse foliar spray screen, leaf rust on wheat; conditions: disease control rating, foliar spray on wheat, 400 ppm (+++ at 100 ppm)
[3] = tested on: melon aphids (Aphis gossypii Glover); experiment: Mite/insect screen, MA; conditions: percent mortality, SAW, SM & MA RATE 200 PPM; for mortality at 200 ppm: Aphis gossypii, read-out: MA RESULTS %
How it was run: (§1)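 Read-out: percent mortality after standard exposure periods. Test solutions were water dilutions of compound dissolved in acetone/alcohol (50:50) with emulsifier blends; leaves were sprayed to runoff on both surfaces and air-dried for one hour before exposure.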

[4] = tested on: Pyricularia oryzae (rice blast); experiment: whole plant or invertebrate; conditions: disease control rating, foliar spray on rice, 400 ppm (+++ at 100 ppm)
[5] = tested on: Septoria tritici (leaf blotch); experiment: Test 1 greenhouse foliar spray screen, leaf blotch on wheat; conditions: disease control rating, foliar spray on wheat, 400 ppm (+++ at 100 ppm)
[6] = tested on: Pseudoperonospora cubensis (downy mildew); experiment: Test 1 greenhouse foliar spray screen, downy mildew on squash; conditions: disease control rating, foliar spray on squash, 400 ppm (+++ at 100 ppm)
[7] = tested on: Twospotted spider mites (Tetranychus urticae Koch); experiment: Mite/insect screen, SM; conditions: percent mortality, SAW, SM & MA RATE 200 PPM; for mortality at 200 ppm: Tetranychus urticae, read-out: SM RESULTS %
How it was run: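 Foliar spray to runoff (10 psi), 1 h drying; aqueous dilutions from acetone/alcohol emulsifier stock. Mortality (%) after standard exposure.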

[8] = tested on: Cercospora beticola (leaf spot); experiment: Test 1 greenhouse foliar spray screen, leaf spot on sugar beet; conditions: disease control rating, foliar spray on sugar beet, 400 ppm (+++ at 100 ppm)
[9] = tested on: Venturia inaequalis (apple scab); experiment: Test 1 greenhouse foliar spray screen, apple scab on apple seedling; conditions: disease control rating, foliar spray on apple seedling, 400 ppm (+++ at 100 ppm)
[10] = tested on: southern armyworm (Spodopetra eridania Cramer); experiment: Mite/insect screen, SAW; conditions: Spodoptera eridania, percent mortality; SAW, SM & MA RATE 200 PPM; read-out: SAW RESULTS %
How it was run: as §1

[11] = tested on: Erysiphe graminis tritici (powdery mildew); experiment: Test 1 greenhouse foliar spray screen, powdery mildew on wheat; conditions: disease control rating, foliar spray on wheat, 400 ppm (+++ at 100 ppm)
corn rootworm = experiment: Mite/insect screen, CRW; conditions: percent mortality, CRW RATE 12.00 PPM; for mortality at 12 ppm: read-out: CRW RESULTS %
How it was run: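 Read-out: % mortality after standard exposure. Formulation: acetone/alcohol (50:50) with emulsifiers at 23 g and 13 g per liter, water-diluted to final test levels.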

Compound | GRAY MOLD [1] | LEAF RUST [2] | mortality at 200 ppm [3] | RICE BLAST [4] | LEAF BLOT [5] | DOWN MDEW [6] | mortality at 200 ppm [7] | LEAF SPOT [8] | APPL SCAB [9] | mortality at 200 ppm [10] | POWD MDEW [11] | mortality at 12 ppm (corn rootworm) | MA RESULTS % [3] | SM RESULTS % [7] | CRW RESULTS % (corn rootworm)
FC(F)(F)c1cc(C(F)(F)F)c2c(NCCc3ccccc3)ccnc2c1 [Example 70, N-(2-phenylethyl)-5,7-bis-(trifluoromethyl)-4-quinolinamine] | - (0-19% control at 400 ppm) | + (20-89% control at 400 ppm) | 0% | + (20-89% control at 400 ppm) | - (0-19% control at 400 ppm) | - (0-19% control at 400 ppm) | 0% | - (0-19% control at 400 ppm) | - (0-19% control at 400 ppm) | 0% | +++ (90-100% control at 100 ppm) | 0% | – | – | –
OCc1cnc2c(F)cccc2c1NCCc1ccccc1 [Example 73, 8-fluoro-4-[(2-phenylethyl)amino]-3-quinolinemethanol] | - (0-19% control at 400 ppm) | - (0-19% control at 400 ppm) | 0% | + (20-89% control at 400 ppm) | - (0-19% control at 400 ppm) | ++ (90-100% control at 400 ppm) | 0% | - (0-19% control at 400 ppm) | - (0-19% control at 400 ppm) | 0% | - (0-19% control at 400 ppm) | 0% | – | – | –
Fc1cccc2c(NCCc3ccc(Cl)c(Cl)c3)ccnc12 [Example 75, N-[2-(3,4-dichlorophenyl)ethyl]-8-fluoro-4-quinolinamine] | - (0-19% control at 400 ppm) | ++ (90-100% control at 400 ppm) | 0% | + (20-89% control at 400 ppm) | + (20-89% control at 400 ppm) | +++ (90-100% control at 100 ppm) | 0% | - (0-19% control at 400 ppm) | - (0-19% control at 400 ppm) | 0% | + (20-89% control at 400 ppm) | 0% | – | – | –
CC(CNc1ccnc2c(F)cccc12)c1ccccc1 (stereo not drawn) [Example 77, 8-fluoro-N-(2-phenylpropyl)-4-quinolinamine] | - (0-19% control at 400 ppm) | ++ (90-100% control at 400 ppm) | 0% | + (20-89% control at 400 ppm) | - (0-19% control at 400 ppm) | +++ (90-100% control at 100 ppm) | 0% | - (0-19% control at 400 ppm) | + (20-89% control at 400 ppm) | 0% | + (20-89% control at 400 ppm) | 0% | – | – | –
Fc1ccc(CCNc2ccnc3c(F)cccc23)cc1 [Example 78, 8-fluoro-N-[2-(4-fluorophenyl)ethyl]-4-quinolinamine] | - (0-19% control at 400 ppm) | +++ (90-100% control at 100 ppm) | 0% | ++ (90-100% control at 400 ppm) | + (20-89% control at 400 ppm) | +++ (90-100% control at 100 ppm) | 0% | +++ (90-100% control at 100 ppm) | - (0-19% control at 400 ppm) | 20% | + (20-89% control at 400 ppm) | 0% | 0% | 0% | 0%
CC(CNc1ccnc2c(F)cccc12)(c1ccccc1)c1ccccc1 [Example 80, N-(2,2-diphenylpropyl)-8-fluoro-4-quinolinamine] | - (0-19% control at 400 ppm) | ++ (90-100% control at 400 ppm) | 0% | ++ (90-100% control at 400 ppm) | - (0-19% control at 400 ppm) | +++ (90-100% control at 100 ppm) | 0% | + (20-89% control at 400 ppm) | - (0-19% control at 400 ppm) | 0% | + (20-89% control at 400 ppm) | 0% | – | – | –
CCC(CNc1ccnc2c(F)cccc12)c1ccccc1 (stereo not drawn) [Example 81, 8-fluoro-N-(2-phenylbutyl)-4-quinolinamine] | - (0-19% control at 400 ppm) | ++ (90-100% control at 400 ppm) | 0% | ++ (90-100% control at 400 ppm) | - (0-19% control at 400 ppm) | +++ (90-100% control at 100 ppm) | 0% | + (20-89% control at 400 ppm) | - (0-19% control at 400 ppm) | 0% | + (20-89% control at 400 ppm) | 0% | – | – | –
Fc1cccc2c(NCCc3ccccc3Cl)ccnc12 [Example 82, N-[2-(2-chlorophenyl)ethyl]-8-fluoro-4-quinolinamine] | - (0-19% control at 400 ppm) | +++ (90-100% control at 100 ppm) | 0% | +++ (90-100% control at 100 ppm) | +++ (90-100% control at 100 ppm) | +++ (90-100% control at 100 ppm) | 0% | + (20-89% control at 400 ppm) | - (0-19% control at 400 ppm) | 0% | + (20-89% control at 400 ppm) | 0% | – | – | –
Fc1cccc2c(NCCc3ccc(C(F)(F)F)cc3)ccnc12 [Example 83, 8-fluoro-N-[2-[4-(trifluoromethyl)phenyl]ethyl]-4-quinolinamine] | +++ (90-100% control at 100 ppm) | +++ (90-100% control at 100 ppm) | 0% | ++ (90-100% control at 400 ppm) | - (0-19% control at 400 ppm) | ++ (90-100% control at 400 ppm) | 0% | + (20-89% control at 400 ppm) | - (0-19% control at 400 ppm) | 0% | + (20-89% control at 400 ppm) | 0% | – | – | –
